Source: patent US20230332232A1, “COMPOSITIONS AND METHODS FOR DIAGNOSING AND TREATING A DYSTONIA” (Duke University, priority 2020, published 2023)

Tested on: DYT1 knockin (Tor1a^delGAG/+) murine embryonic fibroblasts (MEFs)
Test: microRNA-seq of EVs from DYT1 MEFs treated with drug, compared with non-treated DYT1 MEFs
Type: cell-based, mouse
Conditions: for Abs Z Score Sum (Geno + RTV) / RTV Direction Opposite dE?: EVs of DYT1 (Het) MEFs
Method: In addition to proteomic analysis, total RNA-seq and microRNA-seq was performed on RNA isolated in parallel from the EV samples of Cohort 2. As with the proteomic analysis, one biological replicate was prepared from 3 distinct biological clonal cell lines for each genotype. Here, EVs were isolated from conditioned cell culture media by 18 hour ultracentrifugation at 100,000 g. RNA was extracted using the Qiagen miRNeasy Micro Kit (Cat. No. 217084) according to the manufacturer's protocol. Two RNA fractions were extracted from each sample, one enriched in coding and non-coding RNA species>200 nt (“Total RNA” fraction) and one enriched for small RNAs<200 nt (“miRNA” fraction). RNA samples were then submitted to the Duke Sequencing and Genomic Technologies shared resource for further quality control and sequencing. Samples were assessed for concentration and integrity by Qubit and Fragment Analyzer. The miRNA fractions were 4.16 ng/μL-47.57 ng/μL and total RNA fractions were 3.8 ng/μL-43.6 ng/μL. The small RNA library was prepared using the QIAseq miRNA Library Kit (Cat No./ID: 331505) and sequenced on the Illumina NextSeq 500 High-Output platform with 75 bp single-reads. The total RNA library was prepared using the Illumina TruSeq Stranded Total RNA-seq Kit with Ribozero Gold ribosomal RNA reduction and sequenced on the Illumina NovaSeq 6000 S1 platform with 100 bp paired-end reads. Sequencer lane pooling and read depth are attached in the Excel data summary (See “RNA QC” Tab). Data processing and analysis were performed in collaboration with the Duke Genomic Analysis and Bioinformatics shared resource. RNA-seq data was processed using the TrimGalore toolkit (http://www.bioinformatics.babraham.ac.uk/projects/trim_galore), which employs Cutadapt(Martin M. (2011) EMBnet.journal. 17(1):10-12) to trim low quality bases and Illumina sequencing adapters from the 3' end of the reads. Only reads that were 20 nt or longer after trimming were kept for further analysis. Reads were mapped to the mouse genome and transcriptome ([…], et al. (2012) Nucleic Acids Res. 40(Database issue):[…]-97) using the STAR RNA-seq alignment tool (Dobin A, et al. (2013). Bioinformatics. 29(1):15-21). If the reads mapped to a single genomic location, then they were kept for subsequent analysis. Gene counts were compiled using the HTSeq tool (http://www-huber.embl.de/users/anders/HTSeq/). Only genes that had at least 10 reads in any given library were used in subsequent analysis. Normalization and differential expression was carried out using the DESeq26 Bioconductor (Huber W, et al. (2015) Nat Methods. 12(2):115-121) package with the R statistical programming environment (www.r-project.org). […] 694 miRNAs were initially examined with respect to QC, genotype, RTV effects, and ISRIB effects. This subset was the “Full miRNA” subset. FIG. 9A and FIG. 9B show the RTV effect on EV composition in DYT1 cells compared to WT cells for 279 miRNAs, respectively. […] Beginning with the 694 miRNAs in the “Full miRNA” subset, more than 60 molecules were detected in either WT cells or DYT1 cells (WT or Het UMI>60). […] The candidate miRNAs were ranked by the sum of genotype-dependent absolute Z-scores and RTV-induced absolute Z-scores (Abs Z Score Sum (Geno+RTV)). This subset was the “miRNA-Ritonavir Therapeutic Efficacy” subset and contained 201 miRNAs.

[1] = sum of genotype and RTV absolute Z-scores

## CC(C)c1nc(CN(C)C(=O)N[C@H](C(=O)N[C@@H](Cc2ccccc2)C[C@H](O)[C@H](Cc2ccccc2)NC(=O)OCc2cncs2)C(C)C)cs1 [RTV, Ritonavir]
mmu-miR-183-5p
  RTVvHet Z Score: 3.42
  Abs Z Score Sum (Geno + RTV): 5.55
  RTV Direction Opposite dE?: yes
mmu-miR-185-5p
  RTVvHet Z Score: 0.53
mmu-miR-186-5p
  RTVvHet Z Score: 0.33
mmu-miR-187-3p
  RTVvHet Z Score: 1.13
  Abs Z Score Sum (Geno + RTV): 3.96
  RTV Direction Opposite dE?: yes
mmu-miR-188-5p
  RTVvHet Z Score: 0.34
mmu-miR-190b-5p
  RTVvHet Z Score: 0.28
mmu-miR-191-5p
  RTVvHet Z Score: 0.28
mmu-miR-192-5p
  RTVvHet Z Score: 0.54
  Abs Z Score Sum (Geno + RTV): 3.38
  RTV Direction Opposite dE?: yes
mmu-miR-194-5p
  RTVvHet Z Score: 0.46
mmu-miR-199a-3p
  RTVvHet Z Score: 1.07
  RTV Direction Opposite dE?: yes
mmu-miR-199b-3p
  RTVvHet Z Score: 1.17
  RTV Direction Opposite dE?: yes
mmu-miR-206-3p
  RTVvHet Z Score: 0.20
mmu-miR-214-5p
  RTVvHet Z Score: 1.09
mmu-miR-219a-5p
  RTVvHet Z Score: 1.08
mmu-miR-223-3p
  RTVvHet Z Score: −0.59
mmu-miR-224-5p
  RTVvHet Z Score: 0.28
mmu-miR-296-3p
  RTVvHet Z Score: 3.08
  Abs Z Score Sum (Geno + RTV): 5.10
  RTV Direction Opposite dE?: yes
mmu-miR-298-5p
  RTVvHet Z Score: 3.59
  Abs Z Score Sum (Geno + RTV): 6.72
  RTV Direction Opposite dE?: yes
mmu-miR-299a-3p
  RTVvHet Z Score: 1.31
mmu-miR-301a-3p
  RTVvHet Z Score: 1.45
mmu-miR-301b-3p
  RTVvHet Z Score: 1.05
mmu-miR-320-3p
  RTVvHet Z Score: 0.76
mmu-miR-322-5p
  RTVvHet Z Score: 0.75
mmu-miR-324-3p
  RTVvHet Z Score: 0.82
mmu-miR-335-Sp
  RTVvHet Z Score: 1.02
mmu-miR-340-5p
  RTVvHet Z Score: 1.09
mmu-miR-344-3p
  RTVvHet Z Score: 1.30
  Abs Z Score Sum (Geno + RTV): 4.24
  RTV Direction Opposite dE?: yes
mmu-miR-350-3p
  RTVvHet Z Score: 0.41
mmu-miR-361-5p
  RTVvHet Z Score: 0.71
mmu-miR-362-3p
  RTVvHet Z Score: 1.05
  RTV Direction Opposite dE?: yes
mmu-miR-362-5p
  RTVvHet Z Score: 0.83
  Abs Z Score Sum (Geno + RTV): 3.62
  RTV Direction Opposite dE?: yes
mmu-miR-378a-3p
  RTVvHet Z Score: 1.25
mmu-miR-450a-5p
  RTVvHet Z Score: 0.39
mmu-miR-450b-3p
  RTVvHet Z Score: 0.31
mmu-miR-451a
  RTVvHet Z Score: −1.37
mmu-miR-483-5p
  RTVvHet Z Score: 0.01
mmu-miR-500-3p
  RTVvHet Z Score: 1.09
mmu-miR-503-3p
  RTVvHet Z Score: 0.99
mmu-miR-532-5p
  RTVvHet Z Score: 0.52
  Abs Z Score Sum (Geno + RTV): 3.77
  RTV Direction Opposite dE?: yes
mmu-miR-542-3p
  RTVvHet Z Score: 0.81
mmu-miR-542-5p
  RTVvHet Z Score: 2.00
  Abs Z Score Sum (Geno + RTV): 7.20
  RTV Direction Opposite dE?: yes
mmu-miR-582-3p
  RTVvHet Z Score: 0.20
mmu-miR-652-3p
  RTVvHet Z Score: 0.93
mmu-miR-671-5p
  RTVvHet Z Score: 1.76
  RTV Direction Opposite dE?: yes
mmu-miR-700-3p
  RTVvHet Z Score: 0.49
mmu-miR-708-5p
  RTVvHet Z Score: 1.28
mmu-miR-872-5p
  RTVvHet Z Score: 0.68
mmu-miR-1291
  RTVvHet Z Score: 1.91
  Abs Z Score Sum (Geno + RTV): 3.34
  RTV Direction Opposite dE?: yes
mmu-miR-1843a-5p
  RTVvHet Z Score: 0.28
mmu-miR-3102-3p
  RTVvHet Z Score: 0.95
mmu-miR-3535
  RTVvHet Z Score: 1.43
  Abs Z Score Sum (Geno + RTV): 3.67
  RTV Direction Opposite dE?: yes
mmu-miR-5121
  RTVvHet Z Score: 2.65
  Abs Z Score Sum (Geno + RTV): 4.47
  RTV Direction Opposite dE?: yes
mmu-miR-30h-5p
  Abs Z Score Sum (Geno + RTV): 3.25
  RTV Direction Opposite dE?: yes
mmu-miR-30d-5p
  RTVvHet Z Score: 0.70
mmu-miR-344d-3p
  RTVvHet Z Score: 1.98
  Abs Z Score Sum (Geno + RTV): 4.51
  RTV Direction Opposite dE?: yes
[1]
  mmu-miR-147-5p: Abs Z Score Sum (Geno + RTV): 0.20
  mmu-miR-181a-1-3p: Abs Z Score Sum (Geno + RTV): 0.18
  mmu-miR-331-5p: Abs Z Score Sum (Geno + RTV): 0.00
  mmu-miR-668-3p: Abs Z Score Sum (Geno + RTV): 0.42
  mmu-miR-1930-5p: Abs Z Score Sum (Geno + RTV): 0.38
  mmu-miR-1943-5p: Abs Z Score Sum (Geno + RTV): 0.23
  mmu-miR-1955-5p: Abs Z Score Sum (Geno + RTV): 0.00
  mmu-miR-3072-5p: Abs Z Score Sum (Geno + RTV): 0.38
  mmu-miR-3076-3p: Abs Z Score Sum (Geno + RTV): 0.00
  mmu-miR-3088-3p: Abs Z Score Sum (Geno + RTV): 0.18
  mmu-miR-6936-3p: Abs Z Score Sum (Geno + RTV): 0.38
  mmu-miR-7224-3p: Abs Z Score Sum (Geno + RTV): 0.22
  mmu-miR-467d-3p: Abs Z Score Sum (Geno + RTV): 0.32
